Reference: article PMC8214221, “Sequence determinants in the cathelicidin LL-37 that promote inflammation via presentation of RNA to scavenger receptors” (The Journal of Biological Chemistry, 2021)
Residues, ends and D or L forms follow the SMILES beside them.

System: normal human epidermal keratinocytes (NHEKs)
Experiment: LDH release cytotoxicity assay in keratinocytes
Assay type: cell-based
Settings: minimal concentration giving 50% LDH release by NHEKs
Description: Since LL-34 was the minimal truncation mutant of LL-37 that retained both antimicrobial and immune modulatory activity, we prepared a series of synthetic peptides with sequential substitutions of alanine at each amino acid position of the LL-34 parent peptide (Table 1). We compared the minimum inhibitory concentration (MIC) for the LL-34 parent peptide and the alanine mutants (LL-34 peptides—L1A and R34A) against methicillin-resistant Staphylococcus aureus strain USA300 (Fig. 1A). LL-34 peptides were incubated at concentrations of 0 to 100 μM with bacteria. The minimal concentration at which no growth was observed was noted after 18 h of incubation. […] Because of these changes in the MIC against S. aureus between the mutants, we investigated the effective toxicity profile of the peptides in normal human epidermal keratinocytes (NHEKs) by lactate dehydrogenase (LDH) release assay (Table 1). […] Most other peptides were cytotoxic at a minimal concentration of 10 μM, whereas LL-34—K15A was toxic at a concentration of 2.5 μM.
LDH cytotoxicity assay was performed according to manufacturer's instructions (Thermo Fisher Scientific). Culture supernatants from keratinocytes were used fresh for LDH assay after experimental treatments.

Compared with `CC[C@H](C)[C@H](NC(=O)[C@H](CCCCN)NC(=O)[C@H](CCC(=O)O)NC(=O)[C@H](CCCCN)NC(=O)[C@H](CO)NC(=O)[C@H](CCCCN)NC(=O)[C@H](CCCNC(=N)N)NC(=O)[C@H](Cc1ccccc1)NC(=O)[C@H](Cc1ccccc1)NC(=O)[C@H](CC(=O)O)NC(=O)CNC(=O)[C@H](CC(C)C)NC(=O)[C@@H](N)CC(C)C)C(=O)NCC(=O)N[C@@H](CCCCN)C(=O)N[C@@H](C)C(=O)N[C@@H](Cc1ccccc1)C(=O)N[C@@H](CCCCN)C(=O)N[C@@H](CCCNC(=N)N)C(=O)N[C@H](C(=O)N[C@H](C(=O)N[C@@H](CCC(N)=O)C(=O)N[C@@H](CCCNC(=N)N)C(=O)N[C@H](C(=O)N[C@@H](CCCCN)C(=O)N[C@@H](CC(=O)O)C(=O)N[C@@H](Cc1ccccc1)C(=O)N[C@@H](CC(C)C)C(=O)N[C@@H](CCCNC(=N)N)C(=O)N[C@@H](CC(N)=O)C(=O)N[C@@H](CC(C)C)C(=O)N[C@H](C(=O)N1CCC[C@H]1C(=O)N[C@@H](CCCNC(=N)N)C(=O)O)C(C)C)[C@@H](C)CC)C(C)C)[C@@H](C)CC` [LL-34—E16A] (H-LLGDFFRKSKEKIGKAFKRIVQRIKDFLRNLVPR-OH; N-terminus and C-terminus assumed), `CC[C@H](C)[C@H](NC(=O)[C@H](CCCCN)NC(=O)[C@H](CCC(=O)O)NC(=O)[C@H](CCCCN)NC(=O)[C@H](CO)NC(=O)[C@H](CCCCN)NC(=O)[C@H](CCCNC(=N)N)NC(=O)[C@H](Cc1ccccc1)NC(=O)[C@H](Cc1ccccc1)NC(=O)[C@H](CC(=O)O)NC(=O)CNC(=O)[C@H](CC(C)C)NC(=O)[C@@H](N)CC(C)C)C(=O)NCC(=O)N[C@@H](CCCCN)C(=O)N[C@@H](CCC(=O)O)C(=O)N[C@@H](Cc1ccccc1)C(=O)N[C@@H](CCCCN)C(=O)N[C@@H](CCCNC(=N)N)C(=O)N[C@H](C(=O)N[C@H](C(=O)N[C@@H](CCC(N)=O)C(=O)N[C@@H](CCCNC(=N)N)C(=O)N[C@H](C(=O)N[C@@H](CCCCN)C(=O)N[C@@H](C)C(=O)N[C@@H](Cc1ccccc1)C(=O)N[C@@H](CC(C)C)C(=O)N[C@@H](CCCNC(=N)N)C(=O)N[C@@H](CC(N)=O)C(=O)N[C@@H](CC(C)C)C(=O)N[C@H](C(=O)N1CCC[C@H]1C(=O)N[C@@H](CCCNC(=N)N)C(=O)O)C(C)C)[C@@H](C)CC)C(C)C)[C@@H](C)CC` [LL-34—D26A] (H-LLGDFFRKSKEKIGKEFKRIVQRIKAFLRNLVPR-OH; N-terminus and C-terminus assumed) is 2-fold higher in “Minimal cytotoxic concentration in NHEK (LD50)” value (“Minimal cytotoxic concentration” below): 5 µM for the first, 10 µM for the second.

`CC[C@H](C)[C@H](NC(=O)[C@H](CCCCN)NC(=O)[C@H](CCC(=O)O)NC(=O)[C@H](CCCCN)NC(=O)[C@H](CO)NC(=O)[C@H](CCCCN)NC(=O)[C@H](CCCNC(=N)N)NC(=O)[C@H](Cc1ccccc1)NC(=O)[C@H](Cc1ccccc1)NC(=O)[C@H](CC(=O)O)NC(=O)CNC(=O)[C@H](CC(C)C)NC(=O)[C@@H](N)CC(C)C)C(=O)N[C@@H](C)C(=O)N[C@@H](CCCCN)C(=O)N[C@@H](CCC(=O)O)C(=O)N[C@@H](Cc1ccccc1)C(=O)N[C@@H](CCCCN)C(=O)N[C@@H](CCCNC(=N)N)C(=O)N[C@H](C(=O)N[C@H](C(=O)N[C@@H](CCC(N)=O)C(=O)N[C@@H](CCCNC(=N)N)C(=O)N[C@H](C(=O)N[C@@H](CCCCN)C(=O)N[C@@H](CC(=O)O)C(=O)N[C@@H](Cc1ccccc1)C(=O)N[C@@H](CC(C)C)C(=O)N[C@@H](CCCNC(=N)N)C(=O)N[C@@H](CC(N)=O)C(=O)N[C@@H](CC(C)C)C(=O)N[C@H](C(=O)N1CCC[C@H]1C(=O)N[C@@H](CCCNC(=N)N)C(=O)O)C(C)C)[C@@H](C)CC)C(C)C)[C@@H](C)CC` [LL-34—G14A] (H-LLGDFFRKSKEKIAKEFKRIVQRIKDFLRNLVPR-OH; N-terminus and C-terminus assumed) and `CC[C@H](C)[C@H](NC(=O)[C@H](CCCCN)NC(=O)[C@H](CCC(=O)O)NC(=O)[C@H](CCCCN)NC(=O)[C@H](CO)NC(=O)[C@H](CCCCN)NC(=O)[C@H](CCCNC(=N)N)NC(=O)[C@H](Cc1ccccc1)NC(=O)[C@H](Cc1ccccc1)NC(=O)[C@H](CC(=O)O)NC(=O)CNC(=O)[C@H](CC(C)C)NC(=O)[C@@H](N)CC(C)C)C(=O)NCC(=O)N[C@@H](CCCCN)C(=O)N[C@@H](CCC(=O)O)C(=O)N[C@@H](Cc1ccccc1)C(=O)N[C@@H](CCCCN)C(=O)N[C@@H](CCCNC(=N)N)C(=O)N[C@H](C(=O)N[C@@H](C)C(=O)N[C@@H](CCC(N)=O)C(=O)N[C@@H](CCCNC(=N)N)C(=O)N[C@H](C(=O)N[C@@H](CCCCN)C(=O)N[C@@H](CC(=O)O)C(=O)N[C@@H](Cc1ccccc1)C(=O)N[C@@H](CC(C)C)C(=O)N[C@@H](CCCNC(=N)N)C(=O)N[C@@H](CC(N)=O)C(=O)N[C@@H](CC(C)C)C(=O)N[C@H](C(=O)N1CCC[C@H]1C(=O)N[C@@H](CCCNC(=N)N)C(=O)O)C(C)C)[C@@H](C)CC)[C@@H](C)CC` [LL-34—V21A] (H-LLGDFFRKSKEKIGKEFKRIAQRIKDFLRNLVPR-OH; N-terminus and C-terminus assumed) are the same in “Minimal cytotoxic concentration” value: 5 µM for the first, 5 µM for the second.

`CC[C@H](C)[C@H](NC(=O)[C@H](CCCCN)NC(=O)[C@H](CCC(=O)O)NC(=O)[C@H](CCCCN)NC(=O)[C@H](CO)NC(=O)[C@H](C)NC(=O)[C@H](CCCNC(=N)N)NC(=O)[C@H](Cc1ccccc1)NC(=O)[C@H](Cc1ccccc1)NC(=O)[C@H](CC(=O)O)NC(=O)CNC(=O)[C@H](CC(C)C)NC(=O)[C@@H](N)CC(C)C)C(=O)NCC(=O)N[C@@H](CCCCN)C(=O)N[C@@H](CCC(=O)O)C(=O)N[C@@H](Cc1ccccc1)C(=O)N[C@@H](CCCCN)C(=O)N[C@@H](CCCNC(=N)N)C(=O)N[C@H](C(=O)N[C@H](C(=O)N[C@@H](CCC(N)=O)C(=O)N[C@@H](CCCNC(=N)N)C(=O)N[C@H](C(=O)N[C@@H](CCCCN)C(=O)N[C@@H](CC(=O)O)C(=O)N[C@@H](Cc1ccccc1)C(=O)N[C@@H](CC(C)C)C(=O)N[C@@H](CCCNC(=N)N)C(=O)N[C@@H](CC(N)=O)C(=O)N[C@@H](CC(C)C)C(=O)N[C@H](C(=O)N1CCC[C@H]1C(=O)N[C@@H](CCCNC(=N)N)C(=O)O)C(C)C)[C@@H](C)CC)C(C)C)[C@@H](C)CC` [LL-34—K8A] (H-LLGDFFRASKEKIGKEFKRIVQRIKDFLRNLVPR-OH; N-terminus and C-terminus assumed) and `CC[C@H](C)[C@H](NC(=O)[C@H](CCCCN)NC(=O)[C@H](CCC(=O)O)NC(=O)[C@H](CCCCN)NC(=O)[C@H](CO)NC(=O)[C@H](CCCCN)NC(=O)[C@H](CCCNC(=N)N)NC(=O)[C@H](Cc1ccccc1)NC(=O)[C@H](Cc1ccccc1)NC(=O)[C@H](CC(=O)O)NC(=O)CNC(=O)[C@H](CC(C)C)NC(=O)[C@H](C)N)C(=O)NCC(=O)N[C@@H](CCCCN)C(=O)N[C@@H](CCC(=O)O)C(=O)N[C@@H](Cc1ccccc1)C(=O)N[C@@H](CCCCN)C(=O)N[C@@H](CCCNC(=N)N)C(=O)N[C@H](C(=O)N[C@H](C(=O)N[C@@H](CCC(N)=O)C(=O)N[C@@H](CCCNC(=N)N)C(=O)N[C@H](C(=O)N[C@@H](CCCCN)C(=O)N[C@@H](CC(=O)O)C(=O)N[C@@H](Cc1ccccc1)C(=O)N[C@@H](CC(C)C)C(=O)N[C@@H](CCCNC(=N)N)C(=O)N[C@@H](CC(N)=O)C(=O)N[C@@H](CC(C)C)C(=O)N[C@H](C(=O)N1CCC[C@H]1C(=O)N[C@@H](CCCNC(=N)N)C(=O)O)C(C)C)[C@@H](C)CC)C(C)C)[C@@H](C)CC` [LL-34—L1A] (H-ALGDFFRKSKEKIGKEFKRIVQRIKDFLRNLVPR-OH; N-terminus and C-terminus assumed) are the same in “Minimal cytotoxic concentration” value: 5 µM for the first, 5 µM for the second.
